Source: ChEMBL document CHEMBL3988442, “University of Dundee, Small-Polar-MMV Screening Library” (2021)

Biological target: T1, Coenzyme A biosynthesis bifunctional protein CoaBC (Mycobacterium tuberculosis (strain ATCC 25618 / H37Rv), UniProt P9WNZ1)
T1 sequence (P9WNZ1 whole entry): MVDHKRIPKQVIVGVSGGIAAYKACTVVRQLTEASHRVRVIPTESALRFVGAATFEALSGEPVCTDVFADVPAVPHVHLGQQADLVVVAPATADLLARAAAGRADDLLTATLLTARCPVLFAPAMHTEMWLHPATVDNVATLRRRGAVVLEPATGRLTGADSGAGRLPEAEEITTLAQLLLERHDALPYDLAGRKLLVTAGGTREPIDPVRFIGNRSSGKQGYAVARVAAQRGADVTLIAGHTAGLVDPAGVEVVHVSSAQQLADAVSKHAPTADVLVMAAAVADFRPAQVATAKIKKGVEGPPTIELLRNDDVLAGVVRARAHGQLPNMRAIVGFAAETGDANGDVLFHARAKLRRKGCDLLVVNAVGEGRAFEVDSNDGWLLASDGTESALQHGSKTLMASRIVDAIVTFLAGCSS
Test: Biomol Green assay for MtCoaBC inhibitor, OD650 read
Type: functional

SMILES	IC50
Cc1cc(C(F)(F)F)nn1CC(C)C(=O)Nc1ccccn1 (stereo not drawn)	> 30.2 µM
CCCNC(=O)NC(C)c1ccccn1 (stereo not drawn)	> 30.2 µM
CCc1nnc(SCc2nonc2C)n1C1CC1	> 30.2 µM
O=C1CC(c2ccc(C(=O)O)cc2)c2c(sc3c2CCCC3)N1 (stereo not drawn)	> 50.1 µM
COc1c(C2SCC(=O)Nc3[nH]ncc32)cc2c(c1OC)OCO2 (stereo not drawn)	> 30.2 µM
O=C(c1ccnc(C2CCNCC2)c1)N1CCCC(CO)C1 (stereo not drawn)	> 30.2 µM
COCCC(=O)NCc1ccc(-c2ccccc2C(=O)O)nc1	> 30.2 µM
Cc1nc(C)c(CC(=O)N2CCC(c3ccn4nccc4n3)CC2)s1	> 30.2 µM
CN1CCc2nnc(C3CCCN3S(=O)(=O)c3ccc(F)cc3)n2CC1 (stereo not drawn)	> 30.2 µM
CNC(=O)CCc1cccc(C2CCCN(c3cc(C)ncn3)C2)n1 (stereo not drawn)	> 30.2 µM
CC(C)C(=O)N1CCCC(Cc2cccnc2)C1 (stereo not drawn)	> 30.2 µM
Cc1nn(C)cc1S(=O)(=O)N[C@@H]1CCC[C@@H](N2CCCC2)[C@@H]1O	> 30.2 µM
Cc1nc2c(c(=O)[nH]1)CN(Cc1ccc3c(c1)CCCN3C)CC2	> 30.2 µM
CN1CCCC1c1ccc(N2CCOCC2)cn1 (stereo not drawn)	> 30.2 µM
COc1ccc(C2CN(c3cc(C)ncn3)CCN2C(C)=O)cc1 (stereo not drawn)	> 30.2 µM
CCn1cc(CN2CCC(c3ncc(Cl)cc3S(C)(=O)=O)CC2)c(C)n1	> 30.2 µM
CCCn1cc(CN2CCOCC2c2[nH]ncc2C)cn1 (stereo not drawn)	> 30.2 µM
CN(C)Cc1cccc(-c2cccnc2C(=O)NCc2cn(C)cn2)c1	> 30.2 µM
COCCN1CCN(Cc2cnc(C3(C)CCCCO3)nc2)CC1 (stereo not drawn)	> 50.1 µM
CN(C)c1ccc(C(=O)N2CCC(c3cc4cnccc4[nH]3)CC2)cc1	> 30.2 µM
CC(=O)N1CC(c2ccnc(Nc3nccs3)n2)C1	> 30.2 µM
COc1cccc([C@@]2(O)CC[C@@H]3CN(C(=O)c4ccn(C)n4)C[C@@H]32)c1	> 30.2 µM
CCC(=O)NCCc1cc2nc(-c3ccncc3)ccn2n1	> 30.2 µM
CCC1CCCCN1C(=O)Cn1nc(-c2ccc(C)o2)cc(N)c1=O (stereo not drawn)	> 50.1 µM

SMILES	IC50
CCC(=O)N1CCCCC1c1nc(O)c2c(n1)CN(S(=O)(=O)CC)CC2 (stereo not drawn)	> 30.2 µM
CC1CCN(c2nc(O)cc(C3CC(=O)N(C4CCCCC4)C3)n2)CC1 (stereo not drawn)	> 30.2 µM
CCNC(=O)C1(Cc2cc(-c3ccccc3)no2)CCCN(C)C1 (stereo not drawn)	> 30.2 µM
CCNC(=O)C1(Cc2cc(-c3ccc(C)cc3)no2)CCCN(C)C1 (stereo not drawn)	> 30.2 µM
CN(C)c1nccc(C2CCCCN2Cc2cnn3cccnc23)n1 (stereo not drawn)	> 30.2 µM
CN1C[C@@H](C(=O)N2CCCOCC2)[C@@]2(CCc3ccccc3C(=O)N2)C1	> 30.2 µM
CC(C(=O)NC1CC1)n1nc(-c2cccs2)cc(N)c1=O (stereo not drawn)	> 30.2 µM
CC(C)CC(NC(=O)c1cccs1)c1nc2cccnc2n1C (stereo not drawn)	> 30.2 µM
CC[C@@H](Cn1ncc2ccccc2c1=O)NC(=O)c1ccco1	> 30.2 µM
CC(C)c1[nH]c2ncccc2c1CN1CCC(O)CC1	> 30.2 µM
Cc1c(CN2CCCC(O)C2)[nH]c2ccc(F)cc12 (stereo not drawn)	> 30.2 µM
Cc1cnc2[nH]c(C(F)(F)F)c(CN3CCCC(CO)C3)c2c1 (stereo not drawn)	> 30.2 µM
Fc1ccc(Oc2nccnc2C2CCN(C3CCOCC3)CC2)cc1	> 30.2 µM
CN1CCC(c2cccc(C(=O)N(C)C)n2)CC1	> 30.2 µM
Nc1nccnc1CC1CCCN(Cc2c[nH]c3ccccc23)C1 (stereo not drawn)	> 30.2 µM
CNc1cc(C)nc(C2CCN(CCO)CC2)n1	> 30.2 µM
O=C(C1CCOC1)N1Cc2ccccc2OC2(CCOCC2)C1 (stereo not drawn)	> 30.2 µM
Cc1ccc(CNCCN2CCOCC2)o1	> 30.2 µM
Clc1cccc(Cl)c1CN(CCCN1CCOCC1)Cc1cccnc1	> 30.2 µM
Cn1cc(CN2CCCC(c3nccnc3-c3cccc(F)c3)C2)cn1 (stereo not drawn)	> 30.2 µM
O=C(NCc1ccccc1)C1CN(c2ccccn2)CCO1 (stereo not drawn)	> 30.2 µM
CCc1nccn1-c1nccnc1C1CCN(C(=O)COC)CC1	> 30.2 µM
Cc1nc(Nc2nnc(C)s2)cc(C2CCCN2C)n1 (stereo not drawn)	> 30.2 µM
O=C(C1CC1)N1CCC(c2nc(O)c3c(n2)CCN(C2CCCC2)C3)C1 (stereo not drawn)	> 30.2 µM

SMILES	IC50
CC(O)c1cn(Cc2ccc(Cl)cc2)nn1 (stereo not drawn)	> 30.2 µM
CCOc1ccc(C(=O)CC(SC2CCCCC2)C(=O)O)cc1 (stereo not drawn)	> 50.1 µM
Cc1nn(CC(=O)N2CCN(c3ncccn3)CC2)c(C)c1Cl	> 30.2 µM
Cc1ccc(CCCC(=O)N(C)CCN2CCOCC2)cc1	> 30.2 µM
COc1ccc(CNC(=O)NC(C)(CO)C2CC2)c(C(F)(F)F)c1 (stereo not drawn)	> 30.2 µM
CCc1cnc(CN(C)C2CCN(CCCNS(C)(=O)=O)C2)o1 (stereo not drawn)	> 30.2 µM
CC(Cc1ccco1)NC(=O)CCn1cccn1 (stereo not drawn)	> 30.2 µM
CC(C)C(C)(C#N)NC(=O)Cn1cc(C(N)=O)c(-c2ccccc2)n1 (stereo not drawn)	> 30.2 µM
FC(F)(F)c1cccnc1N1CCC(OC2CCOCC2)CC1	> 30.2 µM
O=C(CCCC1CCCC1)NS(=O)(=O)CC1CC1	> 30.2 µM
NS(=O)(=O)c1cc(C(=O)N2CCCCC2)cs1	> 30.2 µM
Cc1nnc(CN(C)S(=O)(=O)c2ccc(Br)cc2Cl)n1C	> 30.2 µM
Cc1cc(C)n(C2CN(c3ncnc4c3CCC4)C2)n1	> 30.2 µM
COCCC(Cc1cccc(Br)c1)C(=O)O (stereo not drawn)	> 50.1 µM
O=C(NCCC(=O)N1CCCC1)c1ccc(SCc2cccnc2)cc1	> 30.2 µM
O=c1oc2ccccc2n1CCCN1CCCC1c1ccc(O)cc1 (stereo not drawn)	> 30.2 µM
CN(CC(N)=O)C(=O)c1csc(Br)c1	> 30.2 µM
O=S(=O)(NC1CCCCC12OCCO2)c1cc(F)cc(F)c1 (stereo not drawn)	> 30.2 µM
Cc1[nH]ncc1C(=O)NCC(CO)Cc1ccc(Cl)cc1 (stereo not drawn)	> 30.2 µM
CC(CO)(NC(=O)NCc1ccc(Br)s1)C1CC1 (stereo not drawn)	> 30.2 µM
CC(C)c1nc(CNC2CCN(C(=O)OC(C)(C)C)CC2)cs1	> 30.2 µM
CC(CS(C)(=O)=O)N(C(=O)CCc1cccc(F)c1)C1CC1 (stereo not drawn)	> 30.2 µM
Cn1ncnc1NS(=O)(=O)c1ccc(F)cc1Cl	> 30.2 µM
O=C(CN1CCCC(c2ccn[nH]2)C1)Nc1nncs1 (stereo not drawn)	> 30.2 µM

SMILES	IC50
C[S+]([O-])c1nncn1CC(=O)c1ccc(Cl)c(Cl)c1 (stereo not drawn)	> 30.2 µM
COCCC(=O)N1CC2(CCN(Cc3ccoc3)C2)C1	> 30.2 µM
COc1cccc(N2CCN(C(=O)C(C)Oc3ccccc3)CC2=O)c1 (stereo not drawn)	> 30.2 µM
Cc1nonc1OCCNC(=O)COc1ccc(F)cc1F	> 30.2 µM
c1ccc(Cc2noc(CCNC3CCOC4(CCOCC4)C3)n2)cc1 (stereo not drawn)	> 30.2 µM
CCC(NC(=O)c1cc(CC(C)C)nn1C)c1cccc(C)n1 (stereo not drawn)	> 30.2 µM
CC(C)=CCn1ncc(N2CCOCC2)cc1=O	> 30.2 µM
Cc1ccc(-c2cc(C(=O)NCCCc3csc(N)n3)[nH]n2)o1	> 30.2 µM
CSCc1noc(CNC(=O)C2CCN(C(=O)C3CC3)CC2)n1	> 30.2 µM
COCCN(Cc1cnn(C)c1)CC1CCOC1 (stereo not drawn)	> 30.2 µM
O=c1n(CC2COCCO2)nc(CC2CCNCC2)n1-c1ccccc1 (stereo not drawn)	> 30.2 µM
CC(C)N1CCC(C(=O)N2CCc3c(nc(CC4CC4)[nH]c3=O)C2)CC1	> 30.2 µM
Cc1cc(C)c(C(=O)NC(c2nnc3n2CCNCC3)C(C)C)c(C)c1 (stereo not drawn)	> 30.2 µM
O=C1CCC2(CCN(Cc3cscn3)CC2)CN1CC1CCCO1 (stereo not drawn)	> 30.2 µM
CCC(=O)N1CCc2[nH]cnc2C12CCN(CC1CCOC1)CC2 (stereo not drawn)	> 30.2 µM
CCn1ncc2c1NC(=O)CC2c1cnc(-c2ccccn2)nc1 (stereo not drawn)	> 30.2 µM
CCn1ncnc1C(C)NC(=O)CC1CCN(C(C)C)CC1 (stereo not drawn)	> 30.2 µM
Nc1ccncc1-n1cc(CCO)cn1	> 30.2 µM
O=C(NCc1nc(NC2CCCC2)c2cc(Cl)ccc2n1)c1ccoc1	> 30.2 µM
O=C(O)c1cc(-c2ccoc2)cc(S(=O)(=O)N2CCSCC2)c1	> 30.2 µM
COc1ccc(CN2CCC3(CCCN(C)C3=O)C2)c(OC)c1C (stereo not drawn)	> 30.2 µM
CCc1ncc(C(=O)N2CC[C@@H]3CC[C@H](C2)N3C)cn1	> 30.2 µM
NC(=O)CCNC(=O)C1(N2CCCCC2)Cc2ccccc2C1	> 30.2 µM
CCC[C@@H]1CN(Cc2c[nH]nc2-c2ccc(OC)cc2)C[C@H]1NC(C)=O	> 30.2 µM

SMILES	IC50
CCc1ncc(C(=O)NCC2CCN(Cc3ccncc3)CC2)cn1	> 30.2 µM
CC(C)NS(=O)(=O)c1cc(C(=O)O)cc(-n2cc3c(n2)CCC3)c1	> 50.1 µM
CCN(C)C[C@@H]1CN(C(=O)NC2CCCCC2)C[C@@H]1CO	> 30.2 µM
Cn1ccnc1-c1cn(Cc2cn3c(n2)SCC3)nn1	> 30.2 µM
CC(C)N1CC2(CCC1=O)CCN(c1ccnc3ccccc13)CC2	> 30.2 µM
Cc1cc(C)cc(-n2ncc3c2CCCC3N)c1 (stereo not drawn)	> 30.2 µM
CCc1nc(C)c(CN2CCCC(c3nn(C)c(=O)n3CC)C2)[nH]1 (stereo not drawn)	> 30.2 µM
COCC(=O)N1CCC(Oc2cccc(C)c2)CC1	> 30.2 µM
CCCN(Cc1ccccc1C)C(CC)CO (stereo not drawn)	> 30.2 µM
CC(C)C1CN(C(=O)c2cn3cc(Cl)cnc3n2)CCCN1CC1CC1 (stereo not drawn)	> 30.2 µM
CN1C(=O)C2(CCN(c3nccc4occc34)CC2)c2ccccc21	> 30.2 µM
O=C(c1cccnc1SC/C=C/c1ccccc1)N1CCOCC(O)C1 (stereo not drawn)	> 30.2 µM
Cc1nc(O)cc(C2(C)CCCNC2)n1 (stereo not drawn)	> 30.2 µM
CCn1nc(C)c(-c2cncn2Cc2ccccc2CN(C)C)c1C	> 30.2 µM
C[C@H]1CN2C[C@H](O)CC2CN1Cc1ccc2nccnc2c1 (stereo partly drawn)	> 30.2 µM
CN(C)C(=O)CN1CCCC2(CCN(c3ccsc3)C2=O)C1 (stereo not drawn)	> 30.2 µM
CN(C)C(=O)CN1CCC2(CCCN(Cc3cccn3C)C2)C1=O (stereo not drawn)	> 30.2 µM
Cc1csc(CN2CCC[C@]3(C[C@H](Oc4ccccn4)CO3)C2)n1	> 30.2 µM
Cc1noc(C)c1CN1CCn2cc(CNc3ccccn3)nc2C1	> 30.2 µM
O=C(NC1CCCC1)[C@@H]1CN(Cc2nccs2)C[C@H]2OCC[C@H]21	> 30.2 µM
c1cncc(CN2CCc3ncnc(C4CCOC4)c3CC2)c1 (stereo not drawn)	> 30.2 µM
OCCN(Cc1ccncc1)CC1(c2ccc(Cl)cc2)CCCC1	> 30.2 µM
